The record followed here is patent publication US9730956B2 (priority 2014, dated 2017).

The structures appear in SMILES notation.

The test system of assay [1] is T. mentagrophytes. Briefly: NORS antifungal effect on mycelial viability. The format is cell-based, Trichophyton mentagrophytes. Conditions: 30 minute exposure; 0.14% sodium nitrite (pH 6) or citric acid at pH 3.7 alone.
The test system of assay [2] is T. rubrum. Briefly: NORS antifungal effect on mycelial viability. As to conditions: 30 minute exposure; 0.14% sodium nitrite (pH 6) or citric acid at pH 3.7 alone. The format is cell-based, Trichophyton rubrum.

As to `O=C(O)CC(O)(CC(=O)O)C(=O)O` [citric acid], the “effect of single NORS component on mycelial viability” value in assay [1] and in assay [2] was “Minimal to no effect” throughout.
For `O=NO` [sodium nitrite], the “effect of single NORS component on mycelial viability” value in assay [1] and in assay [2] was “Minimal to no effect” in each case.
